Key:
[1] = Radiopacity loss and homogeneity of precipitates incubated in PBS at 37° C.; format: physicochemical; parameters: key to Homogeneous radiopacity (0-1): non-homegeneous (score=0); homogeneous (score=1); conditions: for Radiopacity loss (0-3) / Homogeneous radiopacity (0-1): score; for Radiopacity loss (0-3): 30 days in PBS at 37° C. vs time=0, 150 mg equivalent iodine/ml with 6% ethylene vinyl alcohol copolymer in DMSO; for Homogeneous radiopacity (0-1): C-arm X-ray; for radiopacity loss in PBS over time (in words): PBS at 37° C., 30 min and 30 days
Experimental: (§1) The resulting solutions were assayed to assess the precipitation behavior and the radiopacity loss.
Radiopacity loss of precipitates was determined by comparing the radiopacity of freshly prepared samples (time=0) and samples incubated for 30 days in phosphate buffered saline (PBS) at 37° C. PBS was changed daily when possible. Radiopacity was determined using a C-arm X-ray equipment (OEC Fluorostar 7900COMPACT2, General Electric). Radiopacity loss was scored as radiostable (score =0) when the radiopacity loss was below 5%, slightly radiolabile when the radiopacity loss was comprised between 5 to 25% radiopacity loss (score=1), moderately radiolabile when the radiopacity loss was comprised between 26 to 69% radiopacity loss (score=2) and highly radiolabile when the radiopacity loss was comprised between 70to 100% radiopacity loss (score=3). Homogeneity of the radiopacity was also scored as non-homegeneous (score=0) or homogeneous (score=1).
The procedure was as defined above. It can be observed that formulations with high logP values, i.e. above 7.0, are radiostable, while formulations with low logP values, i.e. below 2.0 (logP (LFE13)=−1.6 and logP (LFE23) at pH 7.4=−0.5) lose their radiopacity within minutes.

[2] = Precipitation behavior on slow injection into PBS; format: physicochemical; parameters: key: cohesive (2); cohesive with loss of some material (1); uncontrollable injection or not cohesive (0); conditions: score; 100 ul injected slowly into PBS, 27 G needle
Experimental: as §1
Embolization formulations were slowly injected into phosphate buffered saline (PBS) using a syringe and a fine needle (27 G). Precipitates of embolizing material were obtained after slow injection (1 minute approximately) of 100 ul of embolization formulations. The precipitation behavior was observed and scored as cohesive (2), cohesive with loss of some material (1) and uncontrollable injection or not cohesive (0).

[3] = Radiopacity loss and homogeneity of precipitates incubated in PBS at 37° C.; format: physicochemical; conditions: 30 min of incubation in PBS at 37° C.
renal artery = experiment: In vivo embolization of porcine kidney; conditions: 0.6 ml injected into the renal artery, 35 kg swine
Experimental: In this example, a 35 kg swine was prepared for blood vessel embolization using the embolic composition LFE09 prepared according to Example 2. Embolization of the left kidney proceeded by placement of a microcatheter into the kidney. The catheter was advanced into the renal artery, flushed with contrast agent to identify the location and then flushed with DMSO, followed by 0.6 ml of the LFE09 composition described above, followed yet by more DMSO within the catheter. LFE09 composition was quickly injected into the renal artery. […] After 14 days, the right kidney was embolized with 0.6 ml of the same LFE09 formulation and the animal was euthanized.

[4] = 30 days of incubation in PBS at 37° C.

## O=C(COc1c(I)cc(I)cc1I)OCCOCCOCCO [LFE10]
[1]
  Radiopacity loss (0-3): 3 (highly radiolabile when the radiopacity loss was comprised between 70to 100% radiopacity loss (score=3))
  Homogeneous radiopacity (0-1): 1
[2]
  Precipitation (0-2): 2

## COCCOCCOCCOCCOCCOc1c(I)cc(I)cc1I [LFE07]
[1]
  Radiopacity loss (0-3): 2 (moderately radiolabile when the radiopacity loss was comprised between 26 to 69% radiopacity loss (score=2))
  Homogeneous radiopacity (0-1): 1
[2]
  Precipitation (0-2): 2

## CC(=O)OCCOCCOCCOc1c(I)cc(I)cc1I [LFE12]
[1]
  Radiopacity loss (0-3): 2 (moderately radiolabile when the radiopacity loss was comprised between 26 to 69% radiopacity loss (score=2))
  Homogeneous radiopacity (0-1): 0
[2]
  Precipitation (0-2): 2

## OCCOCCOCCOc1c(I)cc(I)cc1I [LFE06]
[1]
  Radiopacity loss (0-3): 2 (moderately radiolabile when the radiopacity loss was comprised between 26 to 69% radiopacity loss (score=2))
  Homogeneous radiopacity (0-1): 1
[2]
  Precipitation (0-2): 2

## CN(C(=O)CO)c1c(I)c(C(=O)NCC(O)CO)c(I)c(C(=O)NCC(O)CO)c1I (centres unmarked) [LFE13, iomeprol, reference compound]
[1]; [4]
  % of radiopacity compared to time zero: 11.9%
[1]
  Radiopacity loss (0-3): 3 (highly radiolabile when the radiopacity loss was comprised between 70to 100% radiopacity loss (score=3))
  Homogeneous radiopacity (0-1): 1
[1]; t zero
  % of radiopacity compared to time zero: 100.0%
[3]
  % of radiopacity compared to time zero: 29.0%
[2]
  Precipitation (0-2): 0

## COCCOCCOCCOC(=O)COc1c(I)cc(I)cc1I [LFE09]
[1]; [4]
  % of radiopacity compared to time zero: 64.7%
[1]
  radiopacity loss in PBS over time (in words): significant radiopacity loss
  Radiopacity loss (0-3): 3 (highly radiolabile when the radiopacity loss was comprised between 70to 100% radiopacity loss (score=3))
  Homogeneous radiopacity (0-1): 1
[1]; t zero
  % of radiopacity compared to time zero: 100.0%
Renal artery
  embolization of the kidney (in words): the upper pole of the kidney was blocked
[2]
  Precipitation (0-2): 2

## CC(=O)Nc1c(I)c(NC(C)=O)c(I)c(C(=O)O)c1I [LFE23, Diatrizoic acid, reference compound]
[1]; [4]
  % of radiopacity compared to time zero: 19.0%
[1]
  Radiopacity loss (0-3): 3 (highly radiolabile when the radiopacity loss was comprised between 70to 100% radiopacity loss (score=3))
  Homogeneous radiopacity (0-1): 1
[1]; t zero
  % of radiopacity compared to time zero: 100.0%
[3]
  % of radiopacity compared to time zero: 35.6%
[2]
  Precipitation (0-2): 1

## CCCOC(=O)c1c(I)c(NC(C)=O)c(I)c(NC(C)=O)c1I [LFE22]
[1]
  Radiopacity loss (0-3): 1 (slightly radiolabile when the radiopacity loss was comprised between 5 to 25% radiopacity loss (score=1))
  Homogeneous radiopacity (0-1): 1
[2]
  Precipitation (0-2): 2

## COCCOCCOCCOCCOCCOCCOCCOCCOCCOCCOCCOCCOc1c(I)cc(I)cc1I [LFE08]
[1]; [4]
  % of radiopacity compared to time zero: 29.3%
[1]
  radiopacity loss in PBS over time (in words): significant radiopacity loss
  Radiopacity loss (0-3): 2 (moderately radiolabile when the radiopacity loss was comprised between 26 to 69% radiopacity loss (score=2))
  Homogeneous radiopacity (0-1): 1
[1]; t zero
  % of radiopacity compared to time zero: 100.0%
[2]
  Precipitation (0-2): 0

## O=C(OCCOCCOCCOCCOCCO)c1cc(I)cc(I)c1I [LFE17]
[1]
  Radiopacity loss (0-3): 2 (moderately radiolabile when the radiopacity loss was comprised between 26 to 69% radiopacity loss (score=2))
  Homogeneous radiopacity (0-1): 1
[2]
  Precipitation (0-2): 2

## COCCOCCOCCOCc1cc(I)cc(I)c1I [LFE20]
[1]
  Radiopacity loss (0-3): 1 (slightly radiolabile when the radiopacity loss was comprised between 5 to 25% radiopacity loss (score=1))
  Homogeneous radiopacity (0-1): 0
[2]
  Precipitation (0-2): 2

## CCOC(=O)COc1c(I)cc(I)cc1I [LFE02, ethyl 2,4,6-triiodophenoxyacetate]
[1]
  Radiopacity loss (0-3): 2 (moderately radiolabile when the radiopacity loss was comprised between 26 to 69% radiopacity loss (score=2))
  Homogeneous radiopacity (0-1): 0
[2]
  Precipitation (0-2): 1

## CCCCCCOC(=O)c1c(I)c(NC(C)=O)c(I)c(NC(C)=O)c1I [LFE21]
[1]; [4]
  % of radiopacity compared to time zero: 91.4%
[1]
  radiopacity loss in PBS over time (in words): significant radiopacity loss
  Radiopacity loss (0-3): 1 (slightly radiolabile when the radiopacity loss was comprised between 5 to 25% radiopacity loss (score=1))
  Homogeneous radiopacity (0-1): 1
[1]; t zero
  % of radiopacity compared to time zero: 100.0%
[2]
  Precipitation (0-2): 2

## CCCCC(CC)COc1c(I)cc(I)cc1I (centres unmarked) [LFE24]
[1]; [4]
  % of radiopacity compared to time zero: 101.9%
[1]
  radiopacity loss in PBS over time (in words): complete radiostability
  Radiopacity loss (0-3): 0 (radiostable (score =0) when the radiopacity loss was below 5%)
  Homogeneous radiopacity (0-1): 0
[1]; t zero
  % of radiopacity compared to time zero: 100.0%
[3]
  % of radiopacity compared to time zero: 101.3%
[2]
  Precipitation (0-2): 1

## COCCOCCOCCOc1c(I)cc(I)cc1I [LFE05]
[1]
  Radiopacity loss (0-3): 3 (highly radiolabile when the radiopacity loss was comprised between 70to 100% radiopacity loss (score=3))
  Homogeneous radiopacity (0-1): 0
[2]
  Precipitation (0-2): 2

## CCCOC(=O)Cn1cc(I)c(=O)c(I)c1 [LFE03]
[1]; [4]
  % of radiopacity compared to time zero: 14.5%
[1]
  radiopacity loss in PBS over time (in words): significant radiopacity loss
  Radiopacity loss (0-3): 3 (highly radiolabile when the radiopacity loss was comprised between 70to 100% radiopacity loss (score=3))
  Homogeneous radiopacity (0-1): 1
[1]; t zero
  % of radiopacity compared to time zero: 100.0%
[2]
  Precipitation (0-2): 2

## CC(=O)OCC(=O)N(C)c1c(I)c(C(=O)NCC(COC(C)=O)OC(C)=O)c(I)c(C(=O)NCC(COC(C)=O)OC(C)=O)c1I (centres unmarked) [LFE14]
[1]
  Radiopacity loss (0-3): 3 (highly radiolabile when the radiopacity loss was comprised between 70to 100% radiopacity loss (score=3))
  Homogeneous radiopacity (0-1): 1
[2]
  Precipitation (0-2): 2

## CCCCCCOC(=O)Cn1cc(I)c(=O)c(I)c1 [LFE04]
[1]
  Radiopacity loss (0-3): 2 (moderately radiolabile when the radiopacity loss was comprised between 26 to 69% radiopacity loss (score=2))
  Homogeneous radiopacity (0-1): 1
[2]
  Precipitation (0-2): 2

## COCCOCCOCCOCCOCCOCc1cc(I)cc(I)c1I [LFE19]
[1]
  Radiopacity loss (0-3): 1 (slightly radiolabile when the radiopacity loss was comprised between 5 to 25% radiopacity loss (score=1))
  Homogeneous radiopacity (0-1): 1
[2]
  Precipitation (0-2): 2

## CCCCCCOc1c(I)cc(I)cc1I [LFE01]
[1]
  Radiopacity loss (0-3): 1 (slightly radiolabile when the radiopacity loss was comprised between 5 to 25% radiopacity loss (score=1))
  Homogeneous radiopacity (0-1): 0
[2]
  Precipitation (0-2): 2

From patent US20240358885A1, “COMPOSITIONS FOR EMBOLIZATION” (IBERHOSPITEX, S.A., priority 2021, published 2024)
